± gives the uncertainty stated by the source.
How the values were obtained:
Conditions in all cases: 18 h
HEK293T-Rex XBP1-RLuc [1] = experiment: maximal XBP1-RLuc activation from dose-response fit, relative to thapsigargin (% of thapsigargin); higher = stronger activation
Experimental: (§1)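 Dose-response of hit compounds in HEK293T-Rex cells stably expressing ERSE-FLuc or XBP1-RLuc reporters, 18 hr treatment, 1536-well; luminescence normalised to 500 nM thapsigargin (100%) and DMSO (0%), fitted to give EC50 (M) and maximal activation; '>' marks EC50 above the top tested dose (~17 µM).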

HEK293T-Rex XBP1-RLuc [2] = experiment: EC50 for XBP1-RLuc reporter activation
Experimental: as §1

HEK293T-Rex ERSE-FLuc [3] = experiment: EC50 for ERSE-FLuc reporter activation
Experimental: as §1

HEK293T-Rex ERSE-FLuc [4] = experiment: maximal ERSE-FLuc activation from dose-response fit, relative to thapsigargin (% of thapsigargin); higher = stronger activation
Experimental: as §1

SMILES | maximal XBP1-RLuc activation (HEK293T-Rex XBP1-RLuc [1]) | EC50 for XBP1-RLuc reporter activation (HEK293T-Rex XBP1-RLuc [2]) | EC50 for ERSE-FLuc reporter activation (HEK293T-Rex ERSE-FLuc [3]) | maximal ERSE-FLuc activation (HEK293T-Rex ERSE-FLuc [4])
Cc1ccccc1NC(=O)c1sc2nc(N)c(C#N)c(-c3ccc(C(C)C)cc3)c2c1N | 122 ± 17 | 4.47 µM | 4.01 µM | 169 ± 22
C(=N/Nc1nnc2c(n1)[nH]c1ccccc12)/c1c[nH]c2ccccc12 | 26 ± 1.9 | > 16.9 µM | > 16.9 µM | 43.9 ± 1.3
C/C(=N\NC(=O)c1n[nH]c2c1CCCC2)c1ccc2ccccc2c1 | 8.52 ± 1 | > 16.9 µM | > 16.9 µM | 23.2 ± 3.1
CCOc1ccc(/C=C(\C#N)c2[nH]nc(N)c2C#N)cc1OCC | 15.1 ± 1.6 | > 16.9 µM | 10 µM | 59.8 ± 6.2
Cc1ccc(O)c(NC(=O)c2cc(C3CC3)on2)c1 | 23.7 ± 1.1 | > 16.9 µM | 2.02 µM | 91.7 ± 12
Cc1cc2nc(-c3ccc(SCC#N)nc3)[nH]c2cc1C | 8.52 ± 0.53 | > 16.9 µM | > 16.9 µM | 20.4 ± 3.8
Cc1ccc(O)c(NC(=O)CSc2ccccc2)c1 | 21.2 ± 3.5 | > 16.9 µM | 3.9 µM | 83.1 ± 25
CN(C)c1ccc(C(=NO)c2ccc(N(C)C)cc2)cc1 | 7.51 ± 2.8 | > 17.1 µM | > 17.1 µM | 21.7 ± 4.1
Cc1ccc(Nc2nc(N)c3ccccc3n2)cc1Cl | 48.1 ± 5.2 | > 16.9 µM | 10 µM | 111 ± 7.9
COc1ccc(C2=Nn3c(nnc3-c3ccc(OC)cc3)SC2)cc1 | 16 ± 2.4 | > 16.9 µM | > 16.9 µM | 17 ± 5.2
CCOc1cc(/C=C2/NC(=O)N(Cc3ccc(F)cc3)C2=O)ccc1O | 56.8 ± 0.68 | 11.9 µM | > 16.9 µM | 36.3 ± 4.1
O=C(COC(=O)c1cc(O)c(O)c(O)c1)Nc1ccc(Br)cc1F | 26.4 ± 2.7 | > 16.9 µM | > 16.9 µM | 41.7 ± 3.5
Cc1cc2nc(/C(C#N)=C/c3ccco3)[nH]c2cc1C | 2.69 ± 0.74 | > 16.9 µM | > 16.9 µM | 28 ± 8.7
Oc1ccc(-c2cnc3c(Nc4ccc5[nH]ccc5c4)nccn23)cc1 | 37.8 ± 9.5 | > 16.9 µM | > 16.9 µM | 21.4 ± 3.8
O=C(Nc1ccc2c(c1)OCCO2)C(=O)Nc1ccccc1Cl | 2.68 ± 2.8 | > 16.9 µM | > 16.9 µM | 16.5 ± 0.52
COc1cccc(C2=NOC(C(=O)Nc3cc(C)ccc3O)C2)c1 (configuration not stated) | 35.1 ± 3 | > 16.9 µM | 7.27 µM | 92.8 ± 22
Cc1ccc2nc(NC(=O)c3cccc4ccccc34)sc2c1 | 11.2 ± 1.2 | > 15.1 µM | > 15.1 µM | 38.8 ± 5.3
COC(=O)c1c(NC(=O)CCl)sc(C(=O)Nc2cccc([N+](=O)[O-])c2)c1C | 29.6 ± 2.9 | > 16.9 µM | > 16.9 µM | 32.9 ± 4.5
Nc1ccc2nc(-c3ccc(Br)cc3)[nH]c2c1 | 51.4 ± 4.2 | 17.3 µM | 12.5 µM | 74.6 ± 19
CC(C)c1ccc(NC(=O)/C=C/c2ccco2)cc1 | 7.59 ± 2.4 | > 17.2 µM | > 17.2 µM | 21.5 ± 4.6
CN(c1ccccc1)S(=O)(=O)c1cccc(C(=O)NCCc2ccc(O)c(O)c2)c1 | 125.1 ± 1 | 8.35 µM | 6.56 µM | 202 ± 34
OCCNc1nc(Nc2ccc(Br)cc2)nc2ccccc12 | 57 ± 8.1 | 7.94 µM | 4.93 µM | 132 ± 7.4

SMILES | maximal XBP1-RLuc activation (HEK293T-Rex XBP1-RLuc [1]) | EC50 for XBP1-RLuc reporter activation (HEK293T-Rex XBP1-RLuc [2]) | EC50 for ERSE-FLuc reporter activation (HEK293T-Rex ERSE-FLuc [3]) | maximal ERSE-FLuc activation (HEK293T-Rex ERSE-FLuc [4])
COc1cccc(/C=N\NC(=O)c2n[nH]c3c2CCC3)c1 | 4.03 ± 2.5 | > 16.6 µM | > 16.6 µM | 25.8 ± 1.9
COc1ccc(NC(=O)/C(Cl)=C\c2ccccc2)cc1 | 4.41 ± 5 | > 16.9 µM | > 16.9 µM | 22.2 ± 2.3
O=[N+]([O-])c1ccccc1N/N=C/c1ccc(O)c(O)c1 | 43.4 ± 3.5 | > 16.9 µM | > 16.9 µM | 38 ± 11
COc1ccccc1/C=N/Nc1nc(-c2ccccc2)cc(=O)[nH]1 | 5.2 ± 9.3 | > 16.9 µM | > 16.9 µM | 28.3 ± 0.49
COc1ccc(-c2csc(N(CC3CCCO3)C(=O)CCl)n2)cc1 (configuration not stated) | 10.3 ± 0.8 | > 16.9 µM | > 16.9 µM | 17.5 ± 3.4
Cc1ccc(O)c(NC(=O)c2cc(-c3ccc(F)cc3)on2)c1 | 18.8 ± 3.2 | > 16.9 µM | > 16.9 µM | 31 ± 7.9
Cc1ccc(/C=N/NC(=O)c2cccc(F)c2)cc1 | 1.93 ± 2 | > 16.9 µM | > 16.9 µM | 23.1 ± 1.4
O=c1/c(=C/c2ccc(O)c(O)c2)sc2nc3ccccc3n12 | 43.9 ± 5.4 | > 16.9 µM | 6.02 µM | 59.2 ± 3.9
COc1cccc(-c2nc3ccc(N)cc3[nH]2)c1 | 14.7 ± 3.4 | > 16.9 µM | > 16.9 µM | 20.8 ± 3.1
COc1ccc(/C=C2\SC(=O)NC2=Nc2ccc(C)cc2)c(OC)c1 | 3.27 ± 1.6 | > 13 µM | > 13 µM | 18.2 ± 3.2
Cc1cc(C)c2nc3sc(C(=O)N4CCCCC4)c(N)c3cc2c1 | 13.4 ± 1.4 | > 16.9 µM | > 16.9 µM | 34 ± 5.5
Cc1ccc2nc(/C(C#N)=C/c3ccc(O)cc3)[nH]c2c1 | 21.3 ± 3.4 | > 16.9 µM | > 16.9 µM | 35.3 ± 5.6
Fc1ccc(-c2nnc3ccc(N4CCN(c5ccccn5)CC4)nn23)cc1 | 7.7 ± 2.6 | > 16.9 µM | > 16.9 µM | 5.1 ± 4.1
COc1ccc(-c2nn(-c3ccccc3)cc2/C=C/C(=O)O)cc1[N+](=O)[O-] | 6.98 ± 2.8 | > 18.5 µM | > 18.5 µM | 20.8 ± 4.1
CS(=O)(=O)c1ncc(Cl)c(C(=O)C(C#N)c2nc3ccccc3s2)n1 (configuration not stated) | 266 ± 8.4 | 3.99 µM | 2.49 µM | 73.2 ± 8.2
O=C(N/N=C/c1cccc2ccccc12)c1ccc2c(c1)OCO2 | 0.725 ± 0.6 | > 16.9 µM | > 16.9 µM | 25.3 ± 5.6
CC(C)CC(c1nnnn1C1CCCC1)N1CCN(C(=O)c2ccco2)CC1 (configuration not stated) | 8.89 ± 0.66 | > 16.9 µM | > 16.9 µM | 14.3 ± 1.5
N#C/C(=C\c1ccc(O)c(O)c1)c1nc2ccccc2[nH]1 | 25.6 ± 1.6 | > 16.9 µM | > 16.9 µM | 37.6 ± 12
COc1ccccc1/C=C/C(=O)Nc1ccc(Cl)cn1 | 8.83 ± 0.86 | > 15.1 µM | > 15.1 µM | 27.3 ± 3.7
Oc1ccc(/C=N/Nc2cccc3cccnc23)cc1O | 35 ± 3.2 | > 16.9 µM | > 16.9 µM | 30.7 ± 5.1
Oc1ccc(-c2csc3nc(-c4ccccc4)nn23)c(O)c1 | 32.4 ± 1.3 | > 16.9 µM | > 16.9 µM | 30.1 ± 2.2
